Experimental data taken from patent US20060154889A1, “Polyfluorinated nucleoside analogs and methods of use thereof” (priority 2004, published 2006).
Where two headings read alike, the source gives them in different places.

Tests used:
5′XCGCGCG3′ = assay: Dangling end stacking in 6-bp self-complementary DNA (Table S3); assay type: physicochemical; details: for ΔG°37 (Van't Hoff) / ΔG°37 (avg.) / ΔG°37 (fits) / ΔH° (van't Hoff) / ΔS° (Van't Hoff) / Tm: 5′XCGCGCG3′ dangling base; for Tm: 1 M NaCl, 10 mM phosphate buffer (pH 7.0), 0.1 mM EDTA, 5.0 μM; for stacks more favorably than parent hydrocarbon: ^FB vs B, ^FI vs I
Description: To seek evidence for the origins of this selectivity, we examined individual properties of the four nonpolar nucleoside analogues. Stacking was evaluated by the standard dangling end approach using a 6-bp self-complementary DNA.
Calculations. […] (Table 4 and Table 5)

[1] = Octanol-water partitioning of free nucleosides
Description: We explicitly examined hydrophobicity of the four nucleosides by partitioning between 1-octanol and water.
Octanol-water partitioning. The experimental solvent partitioning studies for free nucleosides were carried out as described. Experiments were carried out in triplicate and the results averaged to increase accuracy.

XACAGCTGT = assay: Dangling-end thermal denaturation, sequence XACAGCTGT (Table 1); assay type: physicochemical; details: for Tm: 1 M NaCl, 10 mM sodium phosphate pH 7.0, 5.0 μM DNA-strand; for ΔΔG stacking: difference from core duplex; for ΔTm: vs core duplex
Description: (§1) The dangling-end experimental method was utilized to evaluate the ability of the fluorinated aromatic base analogues to stabilize DNA duplexes when substituted directly adjacent to the helix. The relative stabilizations were measured by comparison of the energetics for helix-coil melting transition of the “core “duplex (lacking any “dangling “nucleotide) to that containing the extra nucleotide. Five short self-complementary sequence contexts were used; the sequences were chosen because they had been shown previously to be well-behaved thermodynamically in the dangling-end configuration. Data from two of the contexts are shown in Table 1, and data for the remaining three show similar trends. By use of these five contexts we were able to compare stacking effects of the base analogues with all four neighboring DNA bases in the helix. Methods for thermodynamic measurements. Thermal denaturation. […] Solutions were then heated to 90° C. for 5 minutes and annealed by slowly cooling to room temperature and then to 0° C. […] Calculations.

(dCGCGCG)2 core duplex = assay: Dangling-end thermal denaturation, sequence XCGCGCG (Table 1); assay type: physicochemical; details: for ΔΔG stacking (stability contributed): (dCGCGCG)2 core duplex; for Tm / −ΔG37 / −ΔH / −ΔS / ΔΔG stacking / ΔTm: XCGCGCG; for Tm: 1 M NaCl, 10 mM sodium phosphate pH 7.0, 5.0 μM DNA-strand; for ΔΔG stacking: difference from core duplex; for ΔTm: vs core duplex
Description: as §1

XAGCGCT = assay: Dangling-end thermal denaturation, sequence XAGCGCT (Table 2); assay type: physicochemical
Description: (§2) The dangling-end experimental method was utilized to evaluate the ability of the fluorinated aromatic base analogues to stabilize DNA duplexes when substituted directly adjacent to the helix. The relative stabilizations were measured by comparison of the energetics for helix—coil melting transition of the “core “duplex (lacking any “dangling “nucleotide) to that containing the extra nucleotide. Five short self-complementary sequence contexts were used; the sequences were chosen because they had been shown previously to be well-behaved thermodynamically in the dangling-end configuration. Data from two of the contexts are shown in Table 1, and data for the remaining three show similar trends. By use of these five contexts we were able to compare stacking effects of the base analogues with all four neighboring DNA bases in the helix.
(§3) Methods for thermodynamic measurements. Thermal denaturation. […] Solutions were then heated to 90° C. for 5 minutes and annealed by slowly cooling to room temperature and then to 0° C.

XGTAGCTAC = assay: Dangling-end thermal denaturation, sequence XGTAGCTAC (Table 2); assay type: physicochemical
Description: as §2, §3

XTGAGCTCA = assay: Dangling-end thermal denaturation, sequence XTGAGCTCA (Table 2); assay type: physicochemical
Description: as §2, §3

[2] = average from fits to individual melting curves
[3] = 2,4,6- vs 2,4,5-substituted case

| Compound | Tm (XACAGCTGT) | −ΔG37 (XACAGCTGT; Van't Hoff plots) | −ΔH (XACAGCTGT; Van't Hoff plots) | −ΔS (XACAGCTGT; Van't Hoff plots) | −ΔG37 (XACAGCTGT; [2]) | ΔΔG stacking (XACAGCTGT) | ΔTm (XACAGCTGT) | Tm ((dCGCGCG)2 core duplex) | −ΔG37 ((dCGCGCG)2 core duplex; Van't Hoff plots) | −ΔH ((dCGCGCG)2 core duplex; Van't Hoff plots) | −ΔS ((dCGCGCG)2 core duplex; Van't Hoff plots) | −ΔG37 ((dCGCGCG)2 core duplex; [2]) | ΔΔG stacking ((dCGCGCG)2 core duplex) | ΔTm ((dCGCGCG)2 core duplex) | −H (XGTAGCTAC; marker c) | −S (XGTAGCTAC; marker c) | −G37 (XTGAGCTCA; marker c) | −H (XTGAGCTCA; marker c) | −S (XTGAGCTCA; marker c) | −G37 (XTGAGCTCA; marker d) | also measured |
| --- | --- | --- | --- | --- | --- | --- | --- | --- | --- | --- | --- | --- | --- | --- | --- | --- | --- | --- | --- | --- | --- |
| 1′,2′-dideoxy-β-1′-(N-indole)-D-ribofuranose [reference compound] | – | – | – | – | – | – | – | – | – | – | – | – | – | – | – | – | – | – | – | – | ΔG°37 (Van't Hoff) (5′XCGCGCG3′): -10.2 ± 0.3 kcal; ΔG°37 (avg.) (5′XCGCGCG3′): -10.0 ± 0.2 kcal; ΔG°37 (fits) (5′XCGCGCG3′): -9.9 ± 0.1 kcal; ΔH° (van't Hoff) (5′XCGCGCG3′): -60.2 kcal; ΔS° (Van't Hoff) (5′XCGCGCG3′): −161 eu; Tm (5′XCGCGCG3′): 51.6 °C; log P ([1]; free nucleoside, 1-octanol and water, triplicate): 0.99 (0.10) |
| OC[C@H]1O[C@@H](c2c(F)cc(F)cc2F)C[C@@H]1O [2,4,6-trifluorophenyl, 1′,2′-dideoxy-β-1′-(2,4,6-trifluorophenyl)-D-ribofuranose] | 47.8 °C | 9.3 ± 0.2 kcal | 53.6 kcal | 143 eu | 9.4 ± 0.2 kcal | 1.3 ± 0.2 | 7.9 °C | 45.3 °C | 8.4 ± 0.2 kcal | 37.3 kcal | 104 eu | 8.6 ± 0.1 kcal | 0.4 ± 0.1 | 4.0 °C | 52.5 kcal | 142 eu | 8.8 kcal | 46.7 kcal | 122 eu | 9.0 kcal | change in Tm stabilization on moving one fluorine from ortho to meta position ((dCGCGCG)2 core duplex; [3]): 6.8; change in stabilization free energy on moving one fluorine from ortho to meta position ((dCGCGCG)2 core duplex; [3]): 1.6 kcal; −G37 (XGTAGCTAC; marker c): 8.4 kcal; G stacking (XTGAGCTCA): 1.3 |
| OC[C@H]1OC(c2ccc(F)cc2)C[C@@H]1O (stereo partly drawn) [4-fluorophenyl, 1′-(4-fluorophenyl)-2′-deoxy-D-ribose] | 48.7 °C | 9.9 ± 0.1 kcal | 66.6 kcal | 183 eu | 9.6 ± 0.1 kcal | 1.8 ± 0.1 | 8.7 °C | 51.2 °C | 10.3 ± 0.3 kcal | 64.9 kcal | 175 eu | 9.9 ± 0.2 kcal | 2.0 ± 0.2 | 9.8 °C | – | – | – | – | – | – | – |
| OC[C@H]1O[C@@H](n2ccc3c(F)c(F)c(F)c(F)c32)C[C@@H]1O [^FI, 1′,2′-dideoxy-β-1′-(N-4,5,6,7-tetrafluoroindole)-D-ribofuranose] | – | – | – | – | – | – | – | – | – | – | – | – | – | – | – | – | – | – | – | – | ΔG°37 (Van't Hoff) (5′XCGCGCG3′): -11.1 ± 0.2 kcal; ΔG°37 (avg.) (5′XCGCGCG3′): -11.2 ± 0.2 kcal; ΔG°37 (fits) (5′XCGCGCG3′): -11.3 ± 0.2 kcal; ΔH° (van't Hoff) (5′XCGCGCG3′): -52.6 kcal; ΔS° (Van't Hoff) (5′XCGCGCG3′): −134 eu; Tm (5′XCGCGCG3′): 59.3 °C; stacks more favorably than parent hydrocarbon (5′XCGCGCG3′): 1.1 kcal/mol; log P [1]: 1.66 (0.10) |

Further lines, with some results ahead:

| Tm (XACAGCTGT) | −ΔG37 (XACAGCTGT; Van't Hoff plots) | −ΔH (XACAGCTGT; Van't Hoff plots) | −ΔS (XACAGCTGT; Van't Hoff plots) | −ΔG37 (XACAGCTGT; [2]) | ΔΔG stacking (XACAGCTGT) | ΔTm (XACAGCTGT) | Tm ((dCGCGCG)2 core duplex) | −ΔG37 ((dCGCGCG)2 core duplex; Van't Hoff plots) | −ΔH ((dCGCGCG)2 core duplex; Van't Hoff plots) | −ΔS ((dCGCGCG)2 core duplex; Van't Hoff plots) | −ΔG37 ((dCGCGCG)2 core duplex; [2]) | ΔΔG stacking ((dCGCGCG)2 core duplex) | ΔTm ((dCGCGCG)2 core duplex) | −H (XGTAGCTAC; marker c) | −S (XGTAGCTAC; marker c) | −G37 (XTGAGCTCA; marker c) | −H (XTGAGCTCA; marker c) | −S (XTGAGCTCA; marker c) | −G37 (XTGAGCTCA; marker d) | Compound | also measured |
| --- | --- | --- | --- | --- | --- | --- | --- | --- | --- | --- | --- | --- | --- | --- | --- | --- | --- | --- | --- | --- | --- |
| 50.9 °C | 10.7 ± 0.2 kcal | 76.3 kcal | 212 eu | 9.8 ± 0.2 kcal | 2.3 ± 0.2 | 10.0 °C | 53.9 °C | 10.3 ± 0.2 kcal | 53.8 kcal | 93 eu | 10.2 ± 0.2 kcal | 2.2 ± 0.2 | 12.6 °C | 57.0 kcal | 156 eu | 9.1 kcal | 51.9 kcal | 138 eu | 9.2 kcal | OC[C@H]1O[C@@H](c2cc(F)c(F)c(F)c2F)C[C@@H]1O [2,3,4,5-tetrafluorophenyl, 1′,2′-dideoxy-β-1′-(2,3,4,5-tetrafluorophenyl)-D-ribofuranose] | ΔG°37 (Van't Hoff) (5′XCGCGCG3′): -10.3 ± 0.2 kcal; ΔG°37 (avg.) (5′XCGCGCG3′): -10.2 ± 0.2 kcal; ΔG°37 (fits) (5′XCGCGCG3′): -10.2 ± 0.2 kcal; ΔH° (van't Hoff) (5′XCGCGCG3′): -53.8 kcal; ΔS° (Van't Hoff) (5′XCGCGCG3′): −93 eu; Tm (5′XCGCGCG3′): 53.9 °C; stacks more favorably than parent hydrocarbon (5′XCGCGCG3′): 1.0 kcal/mol; ΔΔG stacking (stability contributed) ((dCGCGCG)2 core duplex): −2.2 kcalmol^−1; G stacking (XAGCGCT): 1.4; −G37 (XAGCGCT; marker c): 8.3 kcal; −H (XAGCGCT; marker c): 48.4 kcal; −S (XAGCGCT; marker c): 129 eu; −G37 (XAGCGCT; marker d): 8.3 kcal; G stacking (XGTAGCTAC): 1.7; −G37 (XGTAGCTAC; marker c): 8.8 kcal; −G37 (XGTAGCTAC; marker d): 8.8 kcal; log P [1]: 1.39 (0.10); G stacking (XTGAGCTCA): 1.5 |
| 48.9 °C | 10.1 ± 0.2 kcal | 67.8 kcal | 186 eu | 9.7 ± 0.1 kcal | 1.9 ± 0.2 | 9.0 °C | 52.2 °C | 10.1 ± 0.3 kcal | 55.0 kcal | 145 eu | 10.0 ± 0.1 kcal | 2.0 ± 0.2 | 10.8 °C | 72.5 kcal | 204 eu | 9.2 kcal | 53.8 kcal | 144 eu | 9.1 kcal | OCC1OC(c2cc(F)c(F)cc2F)CC1O (stereo not drawn) [2,4,5-trifluorophenyl] | −G37 (XGTAGCTAC; marker d): 9.1 kcal; G stacking (XTGAGCTCA): 1.5 |
| 47.3 °C | 9.3 ± 0.0 kcal | 55.2 kcal | 148 eu | 9.3 ± 0.2 kcal | 1.3 ± 0.1 | 7.0 °C | 44.2 °C | 8.5 ± 0.2 kcal | 39.1 kcal | 99 eu | 8.7 ± 0.1 kcal | 0.5 ± 0.2 | 2.9 °C | 56.5 kcal | 155 eu | 8.7 kcal | 48.6 kcal | 128 eu | 8.9 kcal | OC[C@H]1O[C@@H](c2c(F)c(F)c(F)c(F)c2F)C[C@@H]1O [pentafluorophenyl, 1′,2′-dideoxy-β-1′-(pentafluorophenyl)-D-ribofuranose] | ΔΔG stacking (stability contributed) ((dCGCGCG)2 core duplex): −0.5 kcalmol^−1; G stacking (XAGCGCT): 0.9; −G37 (XAGCGCT; marker c): 7.9 kcal; −H (XAGCGCT; marker c): 45.0 kcal; −S (XAGCGCT; marker c): 120 eu |
